We go through one molecule from patent publication US9371305B2, “Deuterated benzopyran compounds and application thereof” (Guangzhou Institutes of Biomedicine And Health, Chinese …, priority 2012, dated 2016).

One series has as its target T1, human recombinant COX-2 (Homo sapiens, UniProt P35354).
T1 sequence (P35354 18-604): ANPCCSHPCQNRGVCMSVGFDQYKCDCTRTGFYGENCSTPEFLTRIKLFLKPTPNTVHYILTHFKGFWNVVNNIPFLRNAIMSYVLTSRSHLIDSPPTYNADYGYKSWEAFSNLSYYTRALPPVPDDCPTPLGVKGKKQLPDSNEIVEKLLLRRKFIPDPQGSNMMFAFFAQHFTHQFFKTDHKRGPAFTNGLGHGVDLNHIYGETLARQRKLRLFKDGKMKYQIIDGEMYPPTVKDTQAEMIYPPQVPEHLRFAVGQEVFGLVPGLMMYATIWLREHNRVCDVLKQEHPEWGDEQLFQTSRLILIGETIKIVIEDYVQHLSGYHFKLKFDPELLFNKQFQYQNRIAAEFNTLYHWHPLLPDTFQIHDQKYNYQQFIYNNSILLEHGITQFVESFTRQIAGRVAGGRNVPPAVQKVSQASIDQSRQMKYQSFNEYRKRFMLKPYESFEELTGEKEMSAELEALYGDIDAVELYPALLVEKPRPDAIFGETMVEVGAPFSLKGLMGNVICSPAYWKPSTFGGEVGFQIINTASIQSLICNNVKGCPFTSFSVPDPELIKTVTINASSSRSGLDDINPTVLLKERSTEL
As to the kind of experiment: COX-2 enzyme inhibition (ADHP fluorescence). Format: biochemical. The settings on record: human recombinant COX-2, 15 min incubation. As for the experimental part: (§1) Deuterated benzopyran compounds of different concentrations were uniformly mixed with ovine COX-1 and human recombinant COX-2 for incubation for 15 min, respectively, and then the system was added with Heme and ADHP for incubation for another 2 min and finally added with substrate arachidonic acid. The light emission intensity of the reaction product at 595 nm was immediately detected by a microplate reader under exciting light at 530 nm. […] In the whole blood assay, venous blood of healthy donors was collected with a non-anticoagulation tube and a heparin tube, deuterated benzopyran compounds of different concentrations (1×10^−8 to 1×10^−4) were mixed with the blood in the non-anticoagulation tube, the supernatant was collected after the blood was coagulated and then measured by ELISA in terms of the yield of TXB2; and deuterated benzopyran compounds of different concentrations (1×10^−8 to 1×10^−4) were mixed with the blood in the heparin tube, the mixture was added with lipopolysaccharide until the final concentration was 100 μg/mL, mixed uniformly and then kept stand overnight at 37° C., the supernatant was collected by centrifugation and then measured by ELISA in terms of the yield of PGE2.

Series [1] concerns generation of PGE2 in the whole blood. As to the kind of experiment: whole blood assay, lipopolysaccharide-induced yield of PGE2 in heparin blood (ELISA). Format: cell-based, human. The settings on record: Homo sapiens; blood of healthy donors, heparin tube, lipopolysaccharide 100 μg/mL, overnight at 37° C.; read-out: inhibition IC50 onto generation of PGE2 in the whole blood test. The protocol:
as §1
Background: In an ELISA, binding on a coated surface is turned into a signal by an enzyme label.

In a further series the target is T2, ovine COX-1 (Ovis aries, UniProt P05979).
T2 sequence (P05979 25-600): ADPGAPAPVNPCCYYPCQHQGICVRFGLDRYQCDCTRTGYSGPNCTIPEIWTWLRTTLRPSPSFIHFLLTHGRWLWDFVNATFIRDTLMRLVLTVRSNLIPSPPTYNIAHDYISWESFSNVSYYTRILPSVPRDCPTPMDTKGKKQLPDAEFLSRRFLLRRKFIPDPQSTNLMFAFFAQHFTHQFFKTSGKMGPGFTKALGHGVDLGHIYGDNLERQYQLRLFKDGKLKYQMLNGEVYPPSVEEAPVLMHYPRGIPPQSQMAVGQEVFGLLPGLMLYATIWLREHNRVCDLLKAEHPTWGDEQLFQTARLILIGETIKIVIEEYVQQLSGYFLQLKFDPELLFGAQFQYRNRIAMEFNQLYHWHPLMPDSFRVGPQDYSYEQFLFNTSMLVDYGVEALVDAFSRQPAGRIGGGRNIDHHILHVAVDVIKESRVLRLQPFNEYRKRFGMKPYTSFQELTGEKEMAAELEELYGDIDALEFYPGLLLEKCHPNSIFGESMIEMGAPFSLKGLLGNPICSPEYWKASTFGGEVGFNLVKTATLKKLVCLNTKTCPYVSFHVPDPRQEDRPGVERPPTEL
As to the kind of experiment: COX-1 enzyme inhibition (ADHP fluorescence). Format: biochemical. The settings on record: ovine COX-1, 15 min incubation; read-out: Inhibition IC50 COX-1. As for the experimental part: as §1, with “PGE2. […]” for “PGE2.”

Series [2] in a line: Test on pharmacokinetics and bioavailability of rats. The series is classed as in vivo, SD rats. The settings on record: male SD rats, single dose 10 mg/kg. The protocol:
The blood samples employ acetonitrile to precipitate protein, 16000 rpm*30 min, and the supernatant is used for LC/MS analysis. Data is performed with parameter fitting by DAS2.0, and the bioavailability of oral administration of compounds is calculated according AUC data.

Series [3] relates to generation of TXB2 in the whole blood. As to the kind of experiment: whole blood assay, yield of TXB2 in coagulated blood (ELISA). Particulars: Homo sapiens; blood of healthy donors, non-anticoagulation tube; read-out: inhibition IC50 onto generation of TXB2 in the whole blood test. Format: cell-based. The protocol: as §1, with “PGE2. […]” for “PGE2.”

With `[2H]C([2H])([2H])c1cc2c(c(C([2H])([2H])[2H])c1Br)C=C(C(=O)O)C(C(F)(F)F)O2` (stereo not shown) [GIBH-1010, 6-bromo-5,7-(dimethyl-D6)-2-(trifluoromethyl)-2H-chromene-3-carboxylic acid], the IC50 was 0.0671 µM on human recombinant COX-2, above 100 µM in series [1], above 100 µM on ovine COX-1 and 38.9 µM in series [3]. This molecule displayed a volume of distribution (Vd) in series [2] of 0.57 L/kg. In series [2] (oral administration), this molecule had a Cmax of 21399 ng/mL. In addition, the time of peak concentration (Tmax) in series [2] (oral administration) is 0.5 h. In series [2] (oral administration), the t½ came to 3.35 h. Besides, the BA in series [2] (oral, calculated according AUC data) is recorded as 111.8%. In series [2] (rat, plasma, oral administration), the AUC worked out at 84800 ng·h/mL.

Usually Vd stands for a proportionality between amount in the body and measured concentration, not a real space. The Cmax is the highest concentration seen after dosing. By Tmax is commonly meant the time from dosing to the highest level. By t½ is commonly meant the time needed for the level to fall by half in the phase considered. A low value points to fast loss. In general, AUC refers to concentration integrated over time. A lower AUC goes with less exposure.
